Data taken from patent US8435978B2, “Substituted sulfonamide compounds” (Gruenenthal GmbH, priority 2006, dated 2013).
Where a name gives a salt, the structure may show the parent alone.

Key:
human B1R receptor = biological target: T1, human B1R receptor (Homo sapiens, UniProt P46663); assay: Functional study on the bradykinin receptor 1 (B1R), FLIPR Ca2+ assay, hB1R cells; assay type: cell-based; settings: agonist Lys-Des-Arg9-bradykinin 0.5 nM, % inhibition compared with the maximum achievable inhibition; for inhibition at 10 µM: CHO-K1, test substance 10 μM, read-out: B1R Antagonism, human [10 μM] % Inhibition; for B1R Antagonism, human [10 μM] % Inhibition: test substance 10 μM, hB1R CHO K1 cells
T1 construct: host or cells: CHO K1 cells (Chinese hamster ovary), stably transfected
T1 sequence (P46663 1-353): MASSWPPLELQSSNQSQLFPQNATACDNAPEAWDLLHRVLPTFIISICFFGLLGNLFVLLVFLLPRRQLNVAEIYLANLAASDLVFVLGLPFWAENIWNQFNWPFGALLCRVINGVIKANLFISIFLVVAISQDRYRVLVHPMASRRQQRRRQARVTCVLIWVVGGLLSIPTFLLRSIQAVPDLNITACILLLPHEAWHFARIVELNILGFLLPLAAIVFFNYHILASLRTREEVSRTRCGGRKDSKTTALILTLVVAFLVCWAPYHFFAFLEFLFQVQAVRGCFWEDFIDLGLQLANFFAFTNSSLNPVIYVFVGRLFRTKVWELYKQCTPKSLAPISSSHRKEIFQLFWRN
Method in brief: (§1)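 Readout: peak Fluo-4 Ca2+ fluorescence, FLIPR. Stable CHO K1 hB1R or rB1R cells; cpd 10 μM, 10 min preincubation, then agonist (hB1R: Lys-Des-Arg9-BK 0.5 nM; rB1R: Des-Arg9-BK 100 nM). Value = % inhibition relative to maximal achievable inhibition.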

B1R receptor of the rat = biological target: T2, B1R receptor of the rat (Rattus norvegicus, UniProt P97583); assay: Functional study on the bradykinin receptor 1 (B1R), FLIPR Ca2+ assay, rB1R cells; assay type: cell-based; settings: agonist Des-Arg9-bradykinin 100 nM, % inhibition compared with the maximum achievable inhibition; for inhibition at 10 µM: CHO-K1, test substance 10 μM, read-out: B1R Antagonism, rat [10 μM] % Inhibition; for B1R Antagonism, rat [10 μM] % Inhibition: test substance 10 μM, rB1R CHO K1 cells
T2 construct: host or cells: CHO K1 cells (Chinese hamster ovary), stably transfected
T2 sequence (P97583 1-337): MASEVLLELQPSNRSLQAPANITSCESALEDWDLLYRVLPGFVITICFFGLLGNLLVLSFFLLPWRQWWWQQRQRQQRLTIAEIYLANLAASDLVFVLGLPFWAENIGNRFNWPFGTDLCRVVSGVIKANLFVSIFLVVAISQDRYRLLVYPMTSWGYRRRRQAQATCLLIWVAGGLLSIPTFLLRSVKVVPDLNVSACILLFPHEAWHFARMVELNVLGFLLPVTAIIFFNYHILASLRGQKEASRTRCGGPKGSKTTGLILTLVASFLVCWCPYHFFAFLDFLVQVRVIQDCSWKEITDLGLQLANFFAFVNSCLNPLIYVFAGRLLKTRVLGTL
Method in brief: as §1

Row | inhibition at 10 µM (human B1R receptor) [%] | inhibition at 10 µM (B1R receptor of the rat) [%] | B1R Antagonism, human [10 μM] % Inhibition (human B1R receptor) [%] | B1R Antagonism, rat [10 μM] % Inhibition (B1R receptor of the rat) [%] | SMILES
1 | 41.2 | 100 |  |  | Cc1ccc(Cl)cc1N1CCN(C(=O)COCC2CCCCN2S(=O)(=O)c2c(Cl)cccc2Cl)CC1 (stereo not drawn) [Example 321, 1-(4-(5-chloro-2-methylphenyl)piperazin-1-yl)-2-((1-(2,6-dichlorophenylsulfonyl)piperidin-2-yl)methoxy)ethanone]
2 | 95.3 | 110 |  |  | COc1cc(C)c(S(=O)(=O)N2CCCC2COCC(=O)NCc2ccc(N3CCN(C)CC3)cc2)c(C)c1 (stereo not drawn) [Example 18, 2-[1-(4-methoxy-2,6-dimethyl-phenylsulfonyl)-pyrrolidin-2-ylmethoxy]-N-[4-(4-methyl-piperazin-1-yl)-benzyl]-acetamide]
3 | 69.9 | 80.5 |  |  | CCOCCN1CCN(C(=O)COCC2Cc3ccccc3CN2S(=O)(=O)c2c(C)cc(C)cc2C)CC1 (stereo not drawn) [Example 245, 1-(4-(2-ethoxyethyl)piperazin-1-yl)-2-((2-(mesitylsulfonyl)-1,2,3,4-tetrahydroisoquinolin-3-yl)methoxy)ethanone]
4 |  |  | 105.09 | 103.58 | O=C(COCC1CCCN1S(=O)(=O)c1c(Cl)cc(Cl)cc1Cl)N1CCC(N2CCCCC2)CC1 (stereo not drawn) [Example 298, 1-(1,4′-bipiperidin-1-yl)-2-((1-(2,4,6-trichlorophenylsulfonyl)pyrrolidin-2-yl)methoxy)ethanone]
5 | 103 | 98.8 |  |  | COc1cc(C)c(S(=O)(=O)N2CCCC2COCC(=O)Nc2cccc(CN3CCCCC3)c2)c(C)c1 (stereo not drawn) [Example 471, 2-((1-(4-methoxy-2,6-dimethylphenylsulfonyl)pyrrolidin-2-yl)methoxy)-N-(3-(piperidin-1-ylmethyl)phenyl)acetamide]
6 | 65.1 | 89.7 |  |  | COc1cc(C)c(S(=O)(=O)N2CCCC2COCC(=O)Nc2ccc3cnn(C)c3c2)c(C)c1 (stereo not drawn) [Example 501, 2-((1-(4-methoxy-2,6-dimethylphenylsulfonyl)pyrrolidin-2-yl)methoxy)-N-(1-methyl-1H-indazol-6-yl)acetamide]
7 | 43.9 | 30.8 |  |  | Cc1cc(C)c(S(=O)(=O)N2Cc3ccccc3CC2COCC(=O)NCc2ccc(CN3CCCC3)cc2)c(C)c1 (stereo not drawn) [Example 83, N-(4-pyrrolidin-1-ylmethyl-benzyl)-2-[2-(2,4,6-trimethyl-phenylsulfonyl)-1,2,3,4-tetrahydro-isoquinolin-3-ylmethoxy]-acetamide]
8 |  |  | 103.76 | 100.08 | COc1cc(C)c(S(=O)(=O)N2CCCCC2COCC(=O)N2CCC(N3CCN4CCCCC4C3)CC2)c(C)c1.Cl.Cl (stereo not drawn) [Example 99]
9 | 90.4 | 102 |  |  | COc1cc(C)c(S(=O)(=O)N2CCCC2COCC(=O)N2CCCCCC2c2ccc(N(C)C)cc2)c(C)c1 (stereo not drawn) [Example 475, 1-(2-(4-(dimethylamino)phenyl)azepan-1-yl)-2-((1-(4-methoxy-2,6-dimethylphenylsulfonyl)pyrrolidin-2-yl)methoxy)ethanone]
10 | 105 | 101 |  |  | COc1cc(C)c(S(=O)(=O)N2CCCCC2COCC(=O)N2CCC(Cc3cccnc3)C2)c(C)c1 (stereo not drawn) [Example 208, 2-((1-(4-methoxy-2,6-dimethylphenylsulfonyl)piperidin-2-yl)methoxy)-1-(3-(pyridin-3-ylmethyl)pyrrolidin-1-yl)ethanone]
11 | 104 | 102 |  |  | CN1CCC(N2CCN(C(=O)COCC3CCCCN3S(=O)(=O)c3c(Cl)cc(Cl)cc3Cl)CC2)CC1 (stereo not drawn) [Example 118, 1-(4-(1-methylpiperidin-4-yl)piperazin-1-yl)-2-((1-(2,4,6-trichlorophenylsulfonyl)piperidin-2-yl)methoxy)ethanone]
12 | 103 | 102 |  |  | COc1cc(C)c(S(=O)(=O)N2CCCC2COCC(=O)N2CCC(N3CCCCC3)CC2)c(C)c1 (stereo not drawn) [Example 520, 1-(1,4′-bipiperidin-1′-yl)-2-((1-(4-methoxy-2,6-dimethylphenylsulfonyl)pyrrolidin-2-yl)methoxy)ethanone]
13 | 100 | 80.7 |  |  | COc1cc(C)c(S(=O)(=O)N2CCC[C@@H]2COCC(=O)N2CCN(C3CCN(C)CC3)CC2)c(C)c1C [Example 140, (R)-2-((1-(4-methoxy-2,3,6-trimethylphenylsulfonyl)pyrrolidin-2-yl)methoxy)-1-(4-(1-methylpiperidin-4-yl)piperazin-1-yl)ethanone dihydrochloride]
14 | 76.4 | 96.9 |  |  | Cc1cc(C)c(S(=O)(=O)N2CCCCC2COCC(=O)N2CCCC2Cc2ccccn2)c(C)c1 (stereo not drawn) [Example 226, 2-((1-(mesitylsulfonyl)piperidin-2-yl)methoxy)-1-(2-(pyridin-2-ylmethyl)pyrrolidin-1-yl)ethanone]
15 | 104 | 92.4 |  |  | CC(C)N(CCN1CCN(C(=O)COCC2CCCCN2S(=O)(=O)c2c(Cl)cccc2Cl)CC1)C(C)C (stereo not drawn) [Example 281, 2-((1-(2,6-dichlorophenylsulfonyl)piperidin-2-yl)methoxy)-1-(4-(2-(diisopropylamino)ethyl)piperazin-1-yl)ethanone]
16 | 83.3 | 63.3 |  |  | CN1CCC(N2CCN(C(=O)COCC3CCCCN3S(=O)(=O)c3ccc(Cl)c(Cl)c3)CC2)CC1 (stereo not drawn) [Example 32, 2-[1-(3,4-dichloro-phenylsulfonyl)-piperidin-2-ylmethoxy]-1-[4-(1-methyl-piperidin-4-yl)-piperazin-1-yl]-ethanone]
17 | -3.53 | 103 |  |  | COc1ccc(S(=O)(=O)N2CCCCC2COCC(=O)N2CCN(CCOc3ccccc3)CC2)cc1 (stereo not drawn) [Example 558, 2-((1-(4-methoxyphenylsulfonyl)piperidin-2-yl)methoxy)-1-(4-(2-phenoxyethyl)piperazin-1-yl)ethanone]
18 | 100 | 97.8 |  |  | COc1cc(C)c(S(=O)(=O)N2CCCCC2COCC(=O)NC(CN2CCN(C)CC2)c2ccccc2)c(C)c1 (stereo not drawn) [Example 263, 2-((1-(4-methoxy-2,6-dimethylphenylsulfonyl)piperidin-2-yl)methoxy)-N-(2-(4-methylpiperazin-1-yl)-1-phenylethyl)acetamide]
19 | 102 | 99.3 |  |  | COc1cc(C)c(S(=O)(=O)N2Cc3ccccc3CC2COCC(=O)N2CCN(CCCN(C)C)CC2)c(C)c1C (stereo not drawn) [Example 560, 1-(4-(3-(dimethylamino)propyl)piperazin-1-yl)-2-((2-(4-methoxy-2,3,6-trimethylphenylsulfonyl)-1,2,3,4-tetrahydroisoquinolin-3-yl)methoxy)ethanone]
20 | 63.1 | 107 |  |  | COc1cc(C)c(S(=O)(=O)N2CCCCC2COCC(=O)Nc2cc(-c3ccccc3)[nH]n2)c(C)c1 (stereo not drawn) [Example 536, 2-((1-(4-methoxy-2,6-dimethylphenylsulfonyl)piperidin-2-yl)methoxy)-N-(5-phenyl-1H-pyrazol-3-yl)acetamide]
21 | 104 | 100 |  |  | COc1cc(C)c(S(=O)(=O)N2CCCC[C@@H]2COCC(=O)N2CCN(C3CCN(C)CC3)CC2)c(C)c1 [Example 177, (R)-2-((1-(4-methoxy-2,6-dimethylphenylsulfonyl)piperidin-2-yl)methoxy)-1-(4-(1-methylpiperidin-4-yl)piperazin-1-yl)ethanone dihydrochloride]
22 | 104 | 107 |  |  | COc1cc(C)c(S(=O)(=O)N2CCCCC2COCC(=O)N2CCCCC2CCN2CCOCC2)c(C)c1 (stereo not drawn) [Example 534, 2-((1-(4-methoxy-2,6-dimethylphenylsulfonyl)piperidin-2-yl)methoxy)-1-(2-(2-morpholinoethyl)piperidin-1-yl)ethanone]
23 | 99.9 | 99.3 |  |  | COc1cc(C)c(S(=O)(=O)N2CCCCC2COCC(=O)NCCC2CCN(c3ccncc3)CC2)c(C)c1 (stereo not drawn) [Example 143, 2-((1-(4-methoxy-2,6-dimethylphenylsulfonyl)piperidin-2-yl)methoxy)-N-(2-(1-(pyridin-4-yl)piperidin-4-yl)ethyl)acetamide]
24 | 97.1 | 96.8 |  |  | COc1cc(C)c(S(=O)(=O)N2CCCCC2COCC(=O)N2CCC(Oc3cccnc3)CC2)c(C)c1 (stereo not drawn) [Example 165, 2-((1-(4-methoxy-2,6-dimethylphenylsulfonyl)piperidin-2-yl)methoxy)-1-(4-(pyridin-3-yloxy)piperidin-1-yl)ethanone]
